Read-outs that look alike come from different tables or passages of the source.
Test system: cancer cells
Assay: MTS assay: inhibition of cell growth (formazan absorbance at 492 nm after 72 hours with test compound)
Type: cell-based
Conditions: inhibition class
Method in brief: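 DMEM with 1% FBS; cells seeded at 3000/well and grown 18 h at 37 °C, then exposed to compound for 72 h and to MTS/PMS for 4 h. IC50 is the concentration giving a 50% absorbance drop; grades are % inhibition bands.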

[1] = Homo sapiens, DLD-1 cells, read-out: DLD-1, MTS 72 hours at 10 uM
[2] = Homo sapiens, KATO III cells, read-out: KATO III, MTS 72 hours at 10 uM
[3] = Homo sapiens, MDA-MB-231 cells, read-out: MDA-MB-231, MTS 72 hours at 10 uM
[4] = Homo sapiens, NCI-H1299 cells, read-out: NCI-H1299, MTS 72 hours at 10 uM
[5] = Homo sapiens, PC-3 cells, read-out: PC-3, MTS 72 hours at 10 uM
[6] = PACA-2 cells, read-out: PACA-2, MTS 72 hours at 10 uM

Row | SMILES | inhibition at 10 µM [1] [%] | inhibition at 10 µM [2] [%] | inhibition at 10 µM [3] [%] | inhibition at 10 µM [4] [%] | inhibition at 10 µM [5] [%] | inhibition at 10 µM [6] [%]
1 | C1CCC(Nc2nc3c4c(n[nH]c4n2)CCN3)CC1 [Compound 123, N-cyclohexyl-2,6,7,8-tetrahydro-1,2,3,5,6-pentaazaacenaphthylen-4-amine] | < 50 | < 50 | < 50 | < 50 | < 50 | < 50
2 | Fc1ccc(CCNc2nc3c4c(n[nH]c4n2)CCN3)cc1 [Compound 124, N-[2-(4-fluorophenyl)ethyl]-2,6,7,8-tetrahydro-1,2,3,5,6-pentaazaacenaphthylen-4-amine] | < 50 | < 50 | < 50 | < 50 | < 50 | 50 to 79
3 | C1Cc2n[nH]c3nc(N4CCOCC4)nc(c23)N1 [Compound 125, 4-morpholin-4-yl-2,6,7,8-tetrahydro-1,2,3,5,6-pentaazaacenaphthylene] | < 50 | < 50 | < 50 | < 50 | < 50 | < 50
4 | CN1CCC(Nc2nc3c4c(n[nH]c4n2)CCN3)CC1 [Compound 126, N-(1-methylpiperidin-4-yl)-2,6,7,8-tetrahydro-1,2,3,5,6-pentaazaacenaphthylen-4-amine] | < 50 | < 50 | < 50 | < 50 | < 50 | < 50
5 | Fc1cccc(CNc2nc3c4c(n[nH]c4n2)CCN3)c1 [Compound 127, N-(3-fluorobenzyl)-2,6,7,8-tetrahydro-1,2,3,5,6-pentaazaacenaphthylen-4-amine] | > 79 | > 79 | > 79 | 50 to 79 | > 79 | > 79
6 | c1ccc(CCNc2nc3c4c(n[nH]c4n2)CCN3)cc1 [Compound 128, N-(2-phenylethyl)-2,6,7,8-tetrahydro-1,2,3,5,6-pentaazaacenaphthylen-4-amine] | > 79 | > 79 | > 79 | > 79 | > 79 | > 79
7 | COc1ccc(CN2CCc3nn(Cc4ccccc4)c4nc(SC)nc2c34)cc1 [Compound 129, 2-benzyl-6-(4-methoxybenzyl)-4-(methylsulfanyl)-2,6,7,8-tetrahydro-1,2,3,5,6-pentaazaacenaphthylene] | < 50 | < 50 | < 50 | < 50 | < 50 | < 50
8 | COc1ccc(CN2CCc3nn(C)c4nc(SC)nc2c34)cc1 [Compound 130, 6-(4-methoxybenzyl)-2-methyl-4-(methylsulfanyl)-2,6,7,8-tetrahydro-1,2,3,5,6-pentaazaacenaphthylene] | < 50 | < 50 | < 50 | < 50 | < 50 | 50 to 79
9 | CSc1nc2c3c(nn(Cc4ccccc4)c3n1)CCN2Cc1ccccc1 [Compound 133, 2,6-dibenzyl-4-(methylsulfanyl)-2,6,7,8-tetrahydro-1,2,3,5,6-pentaazaacenaphthylene] | > 79 | > 79 | > 79 | > 79 | > 79 | > 79
10 | CSc1nc2c3c(nn(C)c3n1)CCN2Cc1ccccc1 [Compound 171, 6-benzyl-2-methyl-4-(methylsulfanyl)-2,6,7,8-tetrahydro-1,2,3,5,6-pentaazaacenaphthylene] | > 79 | > 79 | > 79 | 50 to 79 | > 79 | > 79
11 | COC(=O)Cn1nc2c3c(nc(SC)nc31)N(Cc1ccccc1)CC2 [Compound 172, methyl [6-benzyl-4-(methylsulfanyl)-7,8-dihydro-1,2,3,5,6-pentaazaacenaphthylen-2(6H)-yl]acetate] | 50 to 79 | < 50 | < 50 | < 50 | > 79 | > 79
12 | c1ccc(CNc2nc3c4c(n[nH]c4n2)CCN3c2ccccc2)cc1 [Compound 208, N-benzyl-6-phenyl-2,6,7,8-tetrahydro-1,2,3,5,6-pentaazaacenaphthylen-4-amine] | < 50 | < 50 | < 50 | < 50 | < 50 | < 50
13 | Clc1ccccc1CNc1nc2c3c(n[nH]c3n1)CCN2c1ccccc1 [Compound 209, N-(2-chlorobenzyl)-6-phenyl-2,6,7,8-tetrahydro-1,2,3,5,6-pentaazaacenaphthylen-4-amine] | < 50 | 50 to 79 | < 50 | < 50 | < 50 | < 50
14 | c1ccc(N2CCc3n[nH]c4nc(N5CCN(c6ccncc6)CC5)nc2c34)cc1 [Compound 210, 6-phenyl-4-(4-pyridin-4-ylpiperazin-1-yl)-2,6,7,8-tetrahydro-1,2,3,5,6-pentaazaacenaphthylene] | > 79 | > 79 | > 79 | > 79 | > 79 | > 79
15 | c1ccc(N2CCc3n[nH]c4nc(NC5CCCCC5)nc2c34)cc1 [Compound 211, N-cyclohexyl-6-phenyl-2,6,7,8-tetrahydro-1,2,3,5,6-pentaazaacenaphthylen-4-amine] | < 50 | < 50 | < 50 | < 50 | < 50 | < 50
16 | c1ccc(OCCNc2nc3c4c(n[nH]c4n2)CCN3c2ccccc2)cc1 [Compound 212, N-(4-phenoxyethyl)-6-phenyl-2,6,7,8-tetrahydro-1,2,3,5,6-pentaazaacenaphthylen-4-amine] | < 50 | < 50 | < 50 | < 50 | < 50 | < 50
17 | Clc1ccc(CNc2nc3c4c(n[nH]c4n2)CCN3c2ccccc2)cc1 [Compound 213, N-(4-chlorobenzyl)-6-phenyl-2,6,7,8-tetrahydro-1,2,3,5,6-pentaazaacenaphthylen-4-amine] | < 50 | < 50 | < 50 | 50 to 79 | < 50 | 50 to 79
18 | c1ccc(N2CCc3n[nH]c4nc(NCc5cccnc5)nc2c34)cc1 [Compound 214, 6-phenyl-N-(pyridin-3-ylmethyl)-2,6,7,8-tetrahydro-1,2,3,5,6-pentaazaacenaphthylen-4-amine] | 50 to 79 | 50 to 79 | < 50 | 50 to 79 | < 50 | 50 to 79

— patent US8343983B2, “Substituted pyrazolo-pyrimidine compounds” (ArQule, Inc., priority 2009, dated 2013)
